# Laboratory results: ChEMBL document CHEMBL4350988, “Development of selective small molecule MDM2 degraders based on nutlin” (Eur J Med Chem, 2019)
# Active and inactive are the calls of the source. The rule behind the calls is not given here.
# How the values were obtained:
# [1] = target: T1, Protein cereblon/E3 ubiquitin-protein ligase Mdm2 (Homo sapiens, UniProt Q00987+Q96SW2); experiment: Protac activity at CRBN/MDM2 in human RS4:11 cells assessed as upregulation of P21 expression at 1 uM measured after 6 hrs by qRT-PCR method; type: cell-based
# Target sequence in this assay (Q00987 whole entry, looked up): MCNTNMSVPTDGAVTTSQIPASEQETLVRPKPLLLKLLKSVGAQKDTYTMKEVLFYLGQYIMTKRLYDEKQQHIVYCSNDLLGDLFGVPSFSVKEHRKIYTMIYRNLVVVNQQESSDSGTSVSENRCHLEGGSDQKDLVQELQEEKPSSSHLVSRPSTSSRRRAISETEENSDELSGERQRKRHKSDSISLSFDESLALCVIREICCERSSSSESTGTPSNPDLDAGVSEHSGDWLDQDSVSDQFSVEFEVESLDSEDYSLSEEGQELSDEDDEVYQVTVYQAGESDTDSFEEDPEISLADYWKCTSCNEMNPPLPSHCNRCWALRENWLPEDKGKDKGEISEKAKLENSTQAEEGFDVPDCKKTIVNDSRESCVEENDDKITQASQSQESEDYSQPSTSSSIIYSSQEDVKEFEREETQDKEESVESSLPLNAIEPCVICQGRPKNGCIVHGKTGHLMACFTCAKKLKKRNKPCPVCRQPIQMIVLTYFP
# Target sequence in this assay (Q96SW2 whole entry, looked up): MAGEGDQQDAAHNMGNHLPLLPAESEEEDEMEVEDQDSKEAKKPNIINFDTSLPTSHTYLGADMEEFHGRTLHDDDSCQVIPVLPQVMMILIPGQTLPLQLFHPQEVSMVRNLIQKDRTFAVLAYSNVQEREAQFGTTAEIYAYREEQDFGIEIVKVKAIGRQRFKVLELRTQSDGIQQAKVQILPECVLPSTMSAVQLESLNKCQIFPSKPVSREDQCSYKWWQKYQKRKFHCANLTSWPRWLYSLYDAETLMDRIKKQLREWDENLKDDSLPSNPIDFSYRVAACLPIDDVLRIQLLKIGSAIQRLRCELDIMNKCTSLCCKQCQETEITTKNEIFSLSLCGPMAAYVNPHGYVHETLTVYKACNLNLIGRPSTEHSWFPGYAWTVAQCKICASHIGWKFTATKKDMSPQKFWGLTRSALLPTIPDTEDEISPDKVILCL
# RS4-11 [2] = experiment: Induction of apoptosis in human RS4:11 cells assessed as early apoptotic cells at 10 nM after 24 hrs by Annexin-V-FITC/propidium iodide staining based flow cytometry relative to control; type: functional
# RS4-11 [3] = experiment: Induction of apoptosis in human RS4:11 cells assessed as late apoptotic cells at 100 nM after 24 hrs by Annexin-V-FITC/propidium iodide staining based flow cytometry relative to control; type: functional
# RS4-11 [4] = experiment: Induction of apoptosis in human RS4:11 cells assessed as viable cells at 1000 nM after 24 hrs by Annexin-V-FITC/propidium iodide staining based flow cytometry relative to control; type: functional; conditions: RS4-11, 24 h, read-out: Activity
# [5] = target: T1, Protein cereblon/E3 ubiquitin-protein ligase Mdm2; experiment: Protac activity at CRBN/MDM2 in human RS4:11 cells assessed as upregulation of MDM2 expression at 1 uM measured after 6 hrs by qRT-PCR method; type: cell-based
# Target sequence in this assay (Q00987 whole entry, looked up): as the sequence (Q00987 whole entry, looked up) above
# Target sequence in this assay (Q96SW2 whole entry, looked up): as the sequence (Q96SW2 whole entry, looked up) above
# RS4-11 [6] = experiment: Induction of apoptosis in human RS4:11 cells assessed as necrotic cells at 100 nM after 24 hrs by Annexin-V-FITC/propidium iodide staining based flow cytometry relative to control; type: functional
# RS4-11 [7] = experiment: Induction of apoptosis in human RS4:11 cells assessed as necrotic cells at 10 nM after 24 hrs by Annexin-V-FITC/propidium iodide staining based flow cytometry relative to control; type: functional
# RS4-11 [8] = experiment: Induction of apoptosis in human RS4:11 cells assessed as early apoptotic cells at 100 nM after 24 hrs by Annexin-V-FITC/propidium iodide staining based flow cytometry relative to control; type: functional
# RS4-11 [9] = experiment: Induction of apoptosis in human RS4:11 cells assessed as late apoptotic cells at 10 nM after 24 hrs by Annexin-V-FITC/propidium iodide staining based flow cytometry relative to control; type: functional
# RS4-11 [10] = experiment: Induction of apoptosis in human RS4:11 cells assessed as late apoptotic cells at 1000 nM after 24 hrs by Annexin-V-FITC/propidium iodide staining based flow cytometry relative to control; type: functional
# [11] = target: T1, Protein cereblon/E3 ubiquitin-protein ligase Mdm2; experiment: Protac activity at CRBN/MDM2 in human RS4:11 cells assessed as effect on TP53 expression at 1 uM measured after 6 hrs by qRT-PCR method; type: cell-based
# Target sequence in this assay (Q00987 whole entry, looked up): as the sequence (Q00987 whole entry, looked up) above
# Target sequence in this assay (Q96SW2 whole entry, looked up): as the sequence (Q96SW2 whole entry, looked up) above
# RS4-11 [12] = experiment: Induction of apoptosis in human RS4:11 cells assessed as early apoptotic cells at 1000 nM after 24 hrs by Annexin-V-FITC/propidium iodide staining based flow cytometry relative to control; type: functional
# RS4-11 [13] = experiment: Induction of apoptosis in human RS4:11 cells assessed as viable cells at 10 nM after 24 hrs by Annexin-V-FITC/propidium iodide staining based flow cytometry relative to control; type: functional; conditions: RS4-11, 24 h, read-out: Activity
# RS4-11 [14] = experiment: Induction of apoptosis in human RS4:11 cells assessed as necrotic cells at 1000 nM after 24 hrs by Annexin-V-FITC/propidium iodide staining based flow cytometry relative to control; type: functional
# RS4-11 [15] = experiment: Induction of apoptosis in human RS4:11 cells assessed as viable cells at 100 nM after 24 hrs by Annexin-V-FITC/propidium iodide staining based flow cytometry relative to control; type: functional; conditions: RS4-11, 24 h, read-out: Activity
# [16] = target: T1, Protein cereblon/E3 ubiquitin-protein ligase Mdm2; experiment: Protac activity at CRBN/MDM2 in human RS4:11 cells assessed as increase in degradation of MDM2 at 100 nM by Western blot analysis; type: cell-based
# Target sequence in this assay (Q00987 whole entry, looked up): as the sequence (Q00987 whole entry, looked up) above
# Target sequence in this assay (Q96SW2 whole entry, looked up): as the sequence (Q96SW2 whole entry, looked up) above
# RS4-11 [17] = experiment: Antiproliferative activity against human RS4:11 cells assessed as reduction in cell viability after 48 hrs by MTT assay; type: functional, cell-based; conditions: RS4-11, 48 h
# RS4-11 [18] = experiment: Antiproliferative activity against human RS4:11 cells assessed as reduction in cell viability at 100 nM after 48 hrs by MTT assay; type: functional, cell-based
# [19] = target: T1, Protein cereblon/E3 ubiquitin-protein ligase Mdm2; experiment: Protac activity at CRBN/MDM2 in human RS4:11 cells assessed as increase in accumulation of p53 at 100 nM by Western blot analysis; type: cell-based
# Target sequence in this assay (Q00987 whole entry, looked up): as the sequence (Q00987 whole entry, looked up) above
# Target sequence in this assay (Q96SW2 whole entry, looked up): as the sequence (Q96SW2 whole entry, looked up) above
# [20] = target: T1, Protein cereblon/E3 ubiquitin-protein ligase Mdm2; experiment: Protac activity at CRBN/MDM2 in human RS4:11 cells assessed as increase in degradation of MDM2 at 10 to 100 nM measured after 12 hrs by Western blot analysis; type: cell-based
# Target sequence in this assay (Q00987 whole entry, looked up): as the sequence (Q00987 whole entry, looked up) above
# Target sequence in this assay (Q96SW2 whole entry, looked up): as the sequence (Q96SW2 whole entry, looked up) above
# [21] = target: T1, Protein cereblon/E3 ubiquitin-protein ligase Mdm2; experiment: Protac activity at CRBN/MDM2 in human RS4:11 cells assessed MDM2 degradation at 10 to 100 nM measured after 1 hr by immunoblot analysis; type: cell-based
# [22] = target: T1, Protein cereblon/E3 ubiquitin-protein ligase Mdm2; experiment: Protac activity at CRBN/MDM2 in human RS4:11 cells assessed as maximal MDM2 degradation level at 100 nM after 24 hrs by Western blot analysis relative to control; type: cell-based
# [23] = target: T1, Protein cereblon/E3 ubiquitin-protein ligase Mdm2; experiment: Protac activity at CRBN/MDM2 in human RS4:11 cells assessed as effect on TP53 expression at 30 to 100 nM measured after 6 hrs by qRT-PCR method; type: cell-based
# [24] = target: T1, Protein cereblon/E3 ubiquitin-protein ligase Mdm2; experiment: Protac activity at CRBN/MDM2 in human RS4:11 cells assessed as MDM2 degradation by Western blot analysis; type: cell-based
# [25] = target: T1, Protein cereblon/E3 ubiquitin-protein ligase Mdm2; experiment: Protac activity at CRBN/MDM2 in human RS4:11 cells assessed as upregulation of P21 expression at 100 nM measured after 6 hrs by qRT-PCR method; type: cell-based
# RS4-11 [26] = experiment: Induction of apoptosis in human RS4:11 cells assessed as caspase3 expression at 100 nM to 1 uM by Westernblot analysis; type: functional, cell-based
# [27] = target: T1, Protein cereblon/E3 ubiquitin-protein ligase Mdm2; experiment: Protac activity at CRBN/MDM2 in human RS4:11 cells assessed as increase in degradation of MDM2 by Western blot analysis; type: cell-based; conditions: TDE = time-dependent effect
# [28] = target: T1, Protein cereblon/E3 ubiquitin-protein ligase Mdm2; experiment: Protac activity at CRBN/MDM2 in human RS4:11 cells assessed as upregulation of MDM2 expression at 100 nM measured after 6 hrs by qRT-PCR method; type: cell-based
# RS4-11 [29] = experiment: Induction of apoptosis in human RS4:11 cells assessed as PARP cleavage at 100 nM to 1 uM by Westernblot analysis; type: functional, cell-based
# [30] = target: T1, Protein cereblon/E3 ubiquitin-protein ligase Mdm2; experiment: Protac activity at CRBN/MDM2 in human RS4:11 cells assessed as reduction in MDM2 degradation at 100 nM preincubated with ((4S,5R)-2-(4-(tert-butyl)-2-ethoxyphenyl)-4,5-bis(4-chlorophenyl)-4,5-dihydro-1H-imidazol-1-yl)(piperazin-1-yl)methanone for 2 hrs followed by compound addition measured after 4 hrs by Western blot analysis; type: cell-based
# [31] = target: T1, Protein cereblon/E3 ubiquitin-protein ligase Mdm2; experiment: Protac activity at CRBN/MDM2 in human RS4:11 cells assessed as MDM2 degradation at 100 nM preincubated with proteasome inhibitior MG132 for 2 hrs followed by compound addition measured after 4 hrs by Western blot analysis; type: cell-based
# [32] = target: T1, Protein cereblon/E3 ubiquitin-protein ligase Mdm2; experiment: Protac activity at CRBN/MDM2 in human RS4:11 cells assessed as degradation of MDM2 at 100 nM to 1 uM by Westernblot analysis; type: cell-based
# [33] = target: T1, Protein cereblon/E3 ubiquitin-protein ligase Mdm2; experiment: Protac activity at CRBN/MDM2 in human RS4:11 cells assessed as PARP cleavage after 6 hrs by Western blot analysis; type: cell-based
# [34] = target: T1, Protein cereblon/E3 ubiquitin-protein ligase Mdm2; experiment: Protac activity at CRBN/MDM2 in human RS4:11 cells assessed as reduction in MDM2 degradation at 100 nM preincubated with lenalidomide for 2 hrs followed by compound addition measured after 4 hrs by Western blot analysis; type: cell-based
# RS4-11 [35] = experiment: Induction of apoptosis in human RS4:11 cells by Annexin-V-FITC/propidium iodide staining based flow cytometry relative to control; type: functional, cell-based
# [36] = target: T1, Protein cereblon/E3 ubiquitin-protein ligase Mdm2; experiment: Protac activity at CRBN/MDM2 in human RS4:11 cells assessed as increase in P21 expression at 100 nM to 1 uM by Westernblot analysis; type: cell-based
# [37] = target: T1, Protein cereblon/E3 ubiquitin-protein ligase Mdm2; experiment: Protac activity at CRBN/MDM2 in human RS4:11 cells assessed as upregulation of P53 expression at 100 nM to 1 uM by Westernblot analysis; type: cell-based
smiles,measurement,setting,value
CCOc1cc(C(C)(C)C)ccc1C1=N[C@@H](c2ccc(Cl)cc2)[C@@H](c2ccc(Cl)cc2)N1C(=O)N1CCNCC1,Activity,[1],Active
same,Activity,RS4-11 [2],10.5%
same,Activity,RS4-11 [3],5.45%
same,viability at 1 µM,RS4-11 [4],69.5%
same,Activity,[5],Active
same,Activity,RS4-11 [6],0%
same,Activity,RS4-11 [7],0.00582%
same,Activity,RS4-11 [8],10.1%
same,Activity,RS4-11 [9],5.37%
same,Activity,RS4-11 [10],16.3%
same,Activity,[11],inactive
same,Activity,RS4-11 [12],13.7%
same,viability at 0.01 µM,RS4-11 [13],84.2%
same,Activity,RS4-11 [14],0.46%
same,viability at 0.1 µM,RS4-11 [15],84.4%
CCOc1cc(C(C)(C)C)ccc1C1=NC(c2ccc(Cl)cc2)C(c2ccc(Cl)cc2)N1C(=O)N1CCN(CC#Cc2cccc3c2CN(C2CCC(=O)NC2=O)C3=O)CC1 (racemic),Activity,[16],Active
same,IC50,RS4-11 [17],7.2 nM
same,Activity,RS4-11 [18],Active
same,Activity,[19],Active
same,Activity,[20],Active
CCOc1cc(C(C)(C)C)ccc1C1=N[C@H](c2ccc(Cl)cc2)[C@H](c2ccc(Cl)cc2)N1C(=O)N1CCN(C(=O)CNC(=O)CCCC#Cc2cccc3c2CN(C2CCC(=O)NC2=O)C3=O)CC1 (some centres undefined),Activity,[20],Active
CCOc1cc(C(C)(C)C)ccc1C1=N[C@@H](c2ccc(Cl)cc2)[C@@H](c2ccc(Cl)cc2)N1C(=O)N1CCN(CCC#Cc2cccc3c2CN(C2CCC(=O)NC2=O)C3=O)CC1 (some centres undefined),Activity,RS4-11 [18],Active
CCOc1cc(C(C)(C)C)ccc1C1=N[C@@H](c2ccc(Cl)cc2)[C@@H](c2ccc(Cl)cc2)N1C(=O)N1CCN(CC#Cc2cccc3c2CN(C2CCC(=O)NC2=O)C3=O)CC1 (some centres undefined),Activity,[21],Active
same,Activity,[16],Active
same,Activity,RS4-11 [2],10.5%
same,Activity,RS4-11 [3],51.6%
same,Emax,[22],90%
same,viability at 1 µM,RS4-11 [4],28.8%
same,Activity,[23],inactive
same,Activity,[24],Dose-dependent effect
same,DC50,[24],23 nM
same,Activity,[25],Active
same,Activity,RS4-11 [26],Active
same,Activity,[27],Tde
same,Activity,RS4-11 [6],0.1%
same,IC50,RS4-11 [17],3.2 nM
same,Activity,[28],Active
same,Activity,RS4-11 [29],Active
same,Activity,[30],Active
same,Activity,[31],Active
same,Activity,[32],Active
same,Activity,[33],Active
same,Activity,RS4-11 [7],0.2%
same,Activity,RS4-11 [8],22.3%
same,Activity,RS4-11 [9],10.1%
same,Activity,[34],Active
same,Activity,RS4-11 [10],43.9%
same,Activity,RS4-11 [12],27.1%
same,Activity,RS4-11 [35],Dose-dependent effect
same,viability at 0.01 µM,RS4-11 [13],79.2%
same,Activity,RS4-11 [18],Active
same,Activity,RS4-11 [14],0.27%
same,Activity,[19],Active
same,Activity,[20],Active
same,Activity,[36],Active
same,Activity,[37],Active
same,viability at 0.1 µM,RS4-11 [15],26%
CCOc1cc(C(C)(C)C)ccc1C1=N[C@@H](c2ccc(Cl)cc2)[C@@H](c2ccc(Cl)cc2)N1C(=O)N1CCN(C(=O)CCC#Cc2cccc3c2CN(C2CCC(=O)NC2=O)C3=O)CC1 (some centres undefined),Activity,[20],Active
CCOc1cc(C(C)(C)C)ccc1C1=N[C@@H](c2ccc(Cl)cc2)[C@@H](c2ccc(Cl)cc2)N1C(=O)N1CCN(CCCC#Cc2cccc3c2CN(C2CCC(=O)NC2=O)C3=O)CC1 (some centres undefined),Activity,RS4-11 [18],Active
